Experimental data published in patent US20190336555A1, “SYNERGISTIC DIETARY SUPPLEMENT COMPOSITIONS FOR IMPROVING BRAIN HEALTH” (LAILA NUTRACEUTICALS, priority 2016, published 2019).
Counter-ions that a name gives are not always drawn.

Tested on: scopolamine induced memory impairment in Sprague Dawley rats
Assay: Scopolamine induced memory impairment model, Morris Water Maze
Type: in vivo
Conditions: oral, 4 days; LN16026F3 100 mg/kg, Donepezil 10 mg/kg; vs Scopolamine group
Experimental: Twenty four healthy male Sprague Dawley rats were randomized in to four groups. Animals of groups 1 and 2 were treated daily with vehicle (0.5% sodium CMC in water); group 3 with LN16026F3 (100 mg/kg) and group 4 with Donepezil Hydrochloride Monohydrate (10 mg/kg). Dementia was induced by injecting Scopolamine Hydrobromide (0.2 mg/kg) subcutaneously to G2, G3 & G4 groups. G1 group received only 1 mL/kg of normal saline (0.9% w/v sodium chloride) via subcutaneous route.
The experiment consists of 4 days of acquisition trials and one probe trial on day 5 i.e. the day after the completion of acquisition trails. Rats were allowed to swim for 120 seconds of 4 trials per day during acquisition trial in water maze to find the hidden platform. Each rat received 4 days of acquisition trials and one probe trial of 180 seconds on day 5. The movement of the animals was tracked by the SMART video tracking system. Memory retention was assessed on day 5 in which each animal received a single 180 seconds probe trial without platform in the pool. Dopamine levels were measured in tissue from hippocampal region of the brain using Elisa kit.

Compound: COc1cc2c(cc1OC)C(=O)C(CC1CCN(Cc3ccccc3)CC1)C2 (stereo not shown) [Donepezil, Donepezil Hydrochloride Monohydrate]
- Target latency, Acquisition Trial: reduction in target latency
